Source: US20190093170A1, “USE OF TRANSLATIONAL PROFILING TO IDENTIFY TARGET MOLECULES FOR THERAPEUTIC TREATMENT” (THE REGENTS OF THE UNIVERSITY OF CALIFORNIA, priority 2013, published 2019)

System: PC3 human prostate cancer cells
Assay: RNA-seq mRNA abundance (part of ribosome profiling experiment);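 further: average poly(A) RNA-seq read density per codon over the coding sequence, excluding 15 initial and 5 final codons, mapped to hg19 transcripts, taken as mRNA abundance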
Type: cell-based
Settings: for Rapamycin mRNA: 3-hour treatment with rapamycin (50 nM) in PC3 cells
Method: Cells were subsequently treated with cycloheximide (100 μg ml^−1; Sigma) and detergent lysis was performed in the dish. The lysate was treated with DNase and clarified, and a sample was taken for RNA-seq analysis. Lysates were subjected to ribosome footprinting by nuclease treatment. Ribosome-protected fragments were purified, and deep sequencing libraries were generated from these fragments, as well as from poly(A) mRNA purified from non-nuclease-treated lysates. These libraries were analyzed by sequencing on an Illumina GAII.
Ribosome footprint and RNA-seq sequencing reads were aligned against a library of transcripts from the UCSC Known Genes database GRCh37/hg19. The first 25 nucleotides of each read were aligned using Bowtie and this initial alignment was then extended to encompass the full fragment-derived portion of the sequencing read while excluding the linker sequence. Read density profiles were then constructed for the canonical transcript of each gene, using only reads with 0 or 1 total mismatches between the read sequence and the reference sequence, comprised of the transcript fragment followed by the linker sequence. Footprint reads were assigned to an A site nucleotide at position +15 to +17 of the alignment, based on the total fragment length; mRNA reads were assigned to the first nucleotide of the alignment. The average read density per codon was then computed for the coding sequence of each transcript, excluding the first 15 and last 5 codons, which can display atypical ribosome accumulation.
Average read density was used as a measure of mRNA abundance (RNA-seq reads) and of protein synthesis (ribosome profiling reads). For most analyses, genes were filtered to require at least 256 reads in the relevant RNA-seq samples. Translational efficiency was computed as the ratio of ribosome footprint read density to RNA-seq read density, scaled to normalize the translational efficiency of the median gene to 1.0 after excluding regulated genes (log 2 fold-change+1.5 after normalizing for the all-gene median). Changes in protein synthesis, mRNA abundance and translational efficiency were similarly computed as the ratio of read densities between different samples, normalized to give the median gene a ratio of 1.0. This normalization corrects for differences in the absolute number of sequencing reads obtained for different libraries.

SMILES: CO[C@H]1C[C@@H]2CC[C@@H](C)[C@@](O)(O2)C(=O)C(=O)N2CCCC[C@H]2C(=O)O[C@H]([C@H](C)C[C@@H]2CC[C@@H](O)[C@H](OC)C2)CC(=O)[C@H](C)/C=C(\C)[C@@H](O)[C@@H](OC)C(=O)[C@H](C)C[C@H](C)/C=C/C=C/C=C/1C [Rapamycin, rapamycin]
- Rapamycin mRNA (gene ACD): −0.96
- mRNA (gene ACTG1): 0.02
- mRNA (gene AGRN): 0.01
- mRNA (gene ALKBH7): 0.06
- mRNA (gene AP2A1): 0.09
- mRNA (gene ARD1A): −0.04
- mRNA (gene ATP5G2): 0.29
- Rapamycin mRNA (gene C17orf28): −0.44
- mRNA (gene C21orf66): −0.30
- Rapamycin mRNA (gene CCNA1): −0.51
- mRNA (gene CCNI): 0.29
- mRNA (gene CD44): 0.34
- mRNA (gene CIRBP): 0.14
- mRNA (gene CLPTM1): 0.07
- mRNA (gene COL6A2): −0.08
- mRNA (gene CRTAP): 0.29
- Rapamycin mRNA (gene DDX51): −0.24
- Rapamycin mRNA (gene DGCR2): −0.66
- mRNA (gene ECSIT): −0.04
- Rapamycin mRNA (gene EEF1A1): 0.46
- mRNA (gene EEF1A2): 0.03
- mRNA (gene EEF1D): 0.18
- mRNA (gene EEF1G): 0.21
- mRNA (gene EEF2): 0.39
- mRNA (gene EIF3H): 0.16
- mRNA (gene EIF3L): 0.28
- mRNA (gene EIF4B): 0.55
- mRNA (gene EVPL): −0.08
- mRNA (gene FAM83H): −0.17
- mRNA (gene FAM128B): 0.06
- mRNA (gene FASN): −0.37
- mRNA (gene GLTSCR2): 0.31
- mRNA (gene GNB2L1): 0.19
- Rapamycin mRNA (gene GTPBP3): −0.73
- mRNA (gene HNRNPA1): 0.18
- mRNA (gene HSPA8): −0.21
- mRNA (gene IMPDH2): 0.11
- mRNA (gene LAMA5): −0.32
- mRNA (gene LMF2): 0.22
- Rapamycin mRNA (gene MAPK6): 0.13
- Rapamycin mRNA (gene MAPKAPK2): −0.21
- mRNA (gene MTA1): 0.00
- mRNA (gene NCLN): −0.05
- Rapamycin mRNA (gene NFATC21P): −0.16
- Rapamycin mRNA (gene NR2F1): 0.05
- mRNA (gene PABPC1): 0.35
- mRNA (gene PABPC4): 0.24
- mRNA (gene PACS1): 0.07
- mRNA (gene PFDN5): 0.11
- mRNA (gene PGLS): 0.03
- mRNA (gene PGM1): 0.40
- mRNA (gene PNKP): −0.24
- Rapamycin mRNA (gene PRKD3): −0.22
- mRNA (gene PTGES2): −0.19
- mRNA (gene RABGGTB): −0.20
- mRNA (gene RPL3): 0.18
- mRNA (gene RPL4): 0.22
- mRNA (gene RPL7): 0.15
- mRNA (gene RPL7A): 0.17
- mRNA (gene RPL9): 0.16
- mRNA (gene RPL10): 0.09
- mRNA (gene RPL10A): 0.16
- mRNA (gene RPL11): 0.09
- mRNA (gene RPL12): 0.07
- mRNA (gene RPL13): 0.14
- mRNA (gene RPL13A): 0.15
- mRNA (gene RPL15): 0.11
- mRNA (gene RPL18A): 0.17
- mRNA (gene RPL19): 0.14
- mRNA (gene RPL21): 0.14
- mRNA (gene RPL22): 0.08
- mRNA (gene RPL24): 0.11
- mRNA (gene RPL26): 0.15
- mRNA (gene RPL27): 0.05
- mRNA (gene RPL27A): 0.06
- mRNA (gene RPL28): 0.24
- Rapamycin mRNA (gene RPL28): 0.64
- mRNA (gene RPL31): −0.02
- mRNA (gene RPL32): 0.22
- mRNA (gene RPL34): 0.11
- mRNA (gene RPL36A): 0.13
- mRNA (gene RPL37A): 0.08
- mRNA (gene RPL39): 0.17
- Rapamycin mRNA (gene RPL39): 0.30
- mRNA (gene RPL41): 0.04
- mRNA (gene RPLP0): 0.15
- mRNA (gene RPLP1): 0.28
- mRNA (gene RPLP2): 0.26
- mRNA (gene RPS2): 0.07
- mRNA (gene RPS3): 0.22
- mRNA (gene RPS3A): 0.22
- mRNA (gene RPS4X): 0.18
- mRNA (gene RPS5): 0.14
- mRNA (gene RPS7): 0.11
- mRNA (gene RPS9): 0.10
- mRNA (gene RPS12): 0.11
- mRNA (gene RPS13): 0.07
- mRNA (gene RPS14): 0.10
- mRNA (gene RPS15): −0.01
- mRNA (gene RPS15A): 0.07
- mRNA (gene RPS19): 0.15
- mRNA (gene RPS20): 0.18
- Rapamycin mRNA (gene RPS20): 0.14
- mRNA (gene RPS21): −0.01
- mRNA (gene RPS25): 0.04
- mRNA (gene RPS27): 0.10
- Rapamycin mRNA (gene RPS27): 0.07
- mRNA (gene RPS27A): 0.16
- mRNA (gene RPS28): 0.01
- Rapamycin mRNA (gene SDCCAG10): −0.19
- mRNA (gene SLC19A1): -0.36
- mRNA (gene TKT): 0.02
- mRNA (gene TPT1): 0.24
- mRNA (gene TSC2): −0.15
- mRNA (gene UBA52): 0.12
- Rapamycin mRNA (gene UBTD2): 0.19
- Rapamycin mRNA (gene UCHL5): −0.08
- Rapamycin mRNA (gene VHL): −0.23
- mRNA (gene VIM): 0.36
- mRNA (gene YB1): 0.11
